Measurements as given in PubChem BioAssay (NCI).
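Method: 48-hour compound exposure of cells in 96-well plates, five concentrations, linear interpolation of endpoints. GI50 marks 50% less growth. TGI marks complete inhibition of growth.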 *1 amine or outer side, *2 acyl side, *3 side chain or, on linkers, in order; H or OH if unused. Where a SMILES comes first, the peptide text is derived from it. [ ]: non-standard residue; d: D form. The star is where a group is joined. ξ: configuration not given here. X15 = CCN(CC)c1ccc2cc(N*)c(=O)oc2c1; dIva = CC[C@@](C)(N)C(=O)O; X14 = O=C(OCCN[*:1])[*:2]; Aib = CC(C)(N)C(=O)O; ξP = O=C(O)C1CCCN1; βAla = NCCC(=O)O

Tested on: MDA-MB-468 breast
Test: NCI anticancer screen, dose series, 48 h

SMILES | GI50 | TGI
O=C(N/N=C/c1cc([N+](=O)[O-])ccc1O)c1cccc2ccccc12 | 1520 nM | 4740 nM
CCCOc1nc(SCCC)nc2c1cnn2-c1ccccc1 | > 100000 nM | > 100000 nM
OCC1OC(n2cnc3c(=S)nc[nH]c32)C(O)C1O (centres undefined) | 631 nM | > 100000 nM
CC(C)c1ccc(Nc2nccc(-c3cnn4ncccc34)n2)cc1 | 271 nM | 833 nM
CN(C)c1ccc(C(=C2C=CC(=[N+](C)C)C=C2)c2ccc(N(C)C)cc2)cc1 | 120 nM | 430 nM
CCN(CC)c1ccc(C(=N)c2ccc(N(C)C)cc2)cc1 | 113 nM | 2250 nM
CCCCN(CCCC)c1ccc(C(=NC(C)CCCN(CC)CC)c2ccc(N(C)C)cc2)cc1 (centres undefined) | 795 nM | 1670 nM
O=C(CN1CCN(c2ccccc2)CC1)N1CCN(c2nnc(-c3ccc(Cl)cc3)c(-c3ccc(Cl)cc3)n2)CC1 | 18900 nM | 95300 nM
CN(C)CC1CCCCCC(CN(C)C)C1=O (centres undefined) | 502 nM | 2540 nM
CCN(CC)c1ccc2cc(NC(=O)OCCNC(=O)CCNC(=O)[C@H](CC(C)C)NC(=O)C(C)(C)NC(=O)C(C)(C)NC(=O)[C@H](CC(C)C)NC(=O)CCNC(=O)C(C)(C)NC(=O)[C@H](CC(C)C)NC(=O)CCNC(=O)[C@@](C)(CC)NC(=O)[C@H](C)NC(=O)CCNC(=O)C(C)(C)NC(=O)[C@H](C)NC(=O)[C@@H]3CCCN3C(=O)[C@@](C)(CC)NC(=O)[C@H](Cc3ccccc3)NC(=O)C3CCCN3C(=O)C(C)(C)NC(=O)C3CCCN3C(=O)C(C)(C)NC(C)=O)c(=O)oc2c1 (some centres undefined) (Ac-[Aib][ξP][Aib][ξP]F[dIva]PA[Aib][βAla]A[dIva][βAla]L[Aib][βAla]L[Aib][Aib]L[βAla][X14]-X15) | 2.77 nM | 7.74 nM
COCCNc1cc(NC(=O)N2CCCc3cc(CN4CCN(C)CC4=O)c(C=O)nc32)ncc1C#N | 26500 nM | > 50000 nM
FC(F)(F)c1ccc(-c2cnc(Cl)nc2NCc2cc(C(F)(F)F)cc(C(F)(F)F)c2)cc1 | 2060 nM | 9150 nM
C[C@]12CCc3sc(Nc4ccc(O)cc4)nc3C1=CC[C@@H]1[C@@H]2CC[C@]2(C)C(=O)CC[C@@H]12 | 2170 nM | 5800 nM
O=C(c1cccnc1)c1cc(-c2ccccn2)c(=O)n2ccccc12 | > 100000 nM | > 100000 nM
Nc1n[nH]c2cccc(C#Cc3cccc(C(=O)Nc4cc(CN5CCOCC5)cc(C(F)(F)F)c4)c3)c12 | 3470 nM | 12900 nM
C=C1CCC2C3(C)COC(c4ccccc4Br)OC3CCC2(C)C1C/C=C1/C(=O)OCC1OC(C)=O (centres undefined) | 1200 nM | 2820 nM
CCOc1ccccc1/C=N\N=C(\N)N/N=C/c1ccccc1OCC | 1720 nM | 8480 nM
CS(=O)(=O)Nc1ccc(N=Cc2c(O)[nH]c3ccccc23)cc1 | > 25000 nM | > 25000 nM
COc1cc(C2C3=C(COC3=O)Nc3cc4c(cc32)CCC4)cc2c1OCO2 (centres undefined) | 28.1 nM | 147 nM
CC(=O)O[C@H]1CC[C@@]2(C)[C@@H](CC[C@@H]3[C@@H]2CC[C@]2(C)C=C(C=O)C[C@@H]32)C1 | 15500 nM | 38200 nM

SMILES | GI50 | TGI
Cc1[nH]c2ccccc2c1CCNCc1ccc(/C=C/C(=O)NO)cc1 | < 10 nM | 140 nM
Nc1nc(N)c(N=O)c(OCC2CCCCC2)n1 | 15200 nM | 52900 nM
CCN1C(=O)N(CC)C2C1NN=c1s/c(=C\c3cc4ccccc4[nH]3)c(=O)n12 (centres undefined) | < 10 nM | 8520 nM
CC1(C)CC[C@]2(C(=O)N3CCOCC3)CC[C@]3(C)C(=CC[C@@H]4[C@@]5(C)C/C(=C/c6ccncc6)C(=O)C(C)(C)[C@@H]5CC[C@]43C)[C@@H]2C1 | 712 nM | > 100000 nM
CCCCNC(=O)NS(=O)(=O)c1ccc(N2N=C(c3cc(C)ccc3C)CC2c2cc(OC)c(OC)c(OC)c2)cc1 (centres undefined) | 2170 nM | 5350 nM
COc1cc(C2CC(c3ccc(N(C)C)cc3)=NN2C(C)=O)cc(OC)c1OC (centres undefined) | 1720 nM | > 100000 nM
Nc1c(C(=O)Nc2ccccc2)sc2nc3c(cc12)CN(Cc1ccccc1)CC3 | 17000 nM | > 100000 nM
O=C(COc1cccc(/C=C2\COc3ccc(Cl)cc3C2=O)c1)c1ccc(Cl)cc1 | 2820 nM | 9260 nM
CCCCCCCOc1c(OC)cc(C2CC(=O)Nc3c2c(C)nn3-c2nc3ccccc3[nH]2)cc1OC (centres undefined) | 2450 nM | 7120 nM
O=C(CCCSc1nc(-c2ccccc2)cc(-c2ccc(Cl)cc2)n1)NO | 1580 nM | 3890 nM
COc1ccc(-c2nn(-c3cccc(Cl)c3)cc2-c2cc(-c3ccccc3)nc(N)n2)cc1 | 1720 nM | 3590 nM
Nc1n[nH]c2ccc([C@@H]3Nc4ccc5[nH]ncc5c4[C@H]4C5C=CC(C5)[C@@H]34)cc12 (some centres undefined) | 329 nM | 16000 nM
CC(C)(C#N)c1cc(C(=O)Nc2cc(Nc3ncccc3-c3ncnc4nc[nH]c34)ccc2F)cc(C(F)(F)F)c1 |  | > 4090 nM
COc1cc(C(=O)/C=C/c2cccnc2Nc2ccccc2)cc(OC)c1OC | 665 nM | 2100 nM
CCNCCNc1cc(C2CCCCC2)c(C#N)c2nc3ccccc3n12 | 751 nM | 2100 nM
Cn1ccnc1C(=O)/C=C/c1ccc(CC(=O)Nc2ccc(C(F)(F)F)cc2)cc1 | 2090 nM | 4660 nM
Nc1ccc(-c2ccc(N)cc2I)c(I)c1 | 5930 nM | 44900 nM
CC1(C)CC[C@]23CC[C@]4(C)[C@H](CC[C@@H]5[C@@]6(C)CC[C@H](NCO)C(C)(C)[C@@H]6CC[C@]54C)[C@H]2[C@H]1OC3 | 1850 nM | 3710 nM
O=C(OCCBr)c1ccc(Cl)c([N+](=O)[O-])c1 | 1900 nM | 4090 nM
CN1CCN(Cc2ccc(NC(=O)c3cncc(C#Cc4cnc5ccc(OCC(F)F)nn45)c3)cc2C(F)(F)F)CC1 | 428 nM | 1330 nM
